Results as given in PubChem BioAssay (NCI).
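Each compound was tested at five concentrations against cells in 96-well plates for 48 hours. GI50: concentration for 50% inhibition of growth. At the TGI there is no net growth.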

Key:
Assay in all cases: inhibition of tumour cell growth, NCI panel, 48 h
786-0 renal = test system: 786-0 renal
A498 renal = test system: A498 renal
A549 NSCLC = test system: A549 NSCLC
ACHN renal = test system: ACHN renal
BT-549 breast = test system: BT-549 breast
CAKI-1 renal = test system: CAKI-1 renal
CCRF-CEM leukemia = test system: CCRF-CEM leukemia
COLO 205 colon = test system: COLO 205 colon
DU-145 prostate = test system: DU-145 prostate
EKVX NSCLC = test system: EKVX NSCLC
HCC-2998 colon = test system: HCC-2998 colon
HCT-116 colon = test system: HCT-116 colon
HCT-15 colon = test system: HCT-15 colon
HL-60(TB) leukemia = test system: HL-60(TB) leukemia
HOP-62 NSCLC = test system: HOP-62 NSCLC
HOP-92 NSCLC = test system: HOP-92 NSCLC
HS 578T breast = test system: HS 578T breast
HT29 colon = test system: HT29 colon
IGROV1 ovarian = test system: IGROV1 ovarian
K-562 leukemia = test system: K-562 leukemia
KM12 colon = test system: KM12 colon
LOX IMVI melanoma = test system: LOX IMVI melanoma
M14 melanoma = test system: M14 melanoma
MALME-3M melanoma = test system: MALME-3M melanoma
MCF7 breast = test system: MCF7 breast
MDA-MB-231 breast = test system: MDA-MB-231 breast
MDA-MB-435 = test system: MDA-MB-435
MOLT-4 leukemia = test system: MOLT-4 leukemia
NCI-H226 lung = test system: NCI-H226 lung
NCI-H23 lung = test system: NCI-H23 lung
NCI-H460 lung = test system: NCI-H460 lung
NCI-H522 lung = test system: NCI-H522 lung
NCI/ADR-RES ovarian = test system: NCI/ADR-RES ovarian
OVCAR-3 ovarian = test system: OVCAR-3 ovarian
OVCAR-4 ovarian = test system: OVCAR-4 ovarian
OVCAR-5 ovarian = test system: OVCAR-5 ovarian
OVCAR-8 ovarian = test system: OVCAR-8 ovarian
PC-3 prostate = test system: PC-3 prostate
RPMI-8226 leukemia = test system: RPMI-8226 leukemia
RXF 393 renal = test system: RXF 393 renal
SF-268 CNS = test system: SF-268 CNS
SF-295 CNS = test system: SF-295 CNS
SF-539 CNS = test system: SF-539 CNS
SK-MEL-2 melanoma = test system: SK-MEL-2 melanoma
SK-MEL-28 melanoma = test system: SK-MEL-28 melanoma
SK-MEL-5 melanoma = test system: SK-MEL-5 melanoma
SK-OV-3 ovarian = test system: SK-OV-3 ovarian
SN12C renal = test system: SN12C renal
SNB-19 CNS = test system: SNB-19 CNS
SNB-75 CNS = test system: SNB-75 CNS
SR leukemia = test system: SR leukemia
SW-620 colon = test system: SW-620 colon
T-47D breast = test system: T-47D breast
TK-10 renal = test system: TK-10 renal
U251 CNS = test system: U251 CNS
UACC-257 melanoma = test system: UACC-257 melanoma
UACC-62 melanoma = test system: UACC-62 melanoma
UO-31 renal = test system: UO-31 renal

`COc1cc(/C=C/C(=O)c2ccc(Nc3nc(Nc4ccc(F)cc4)nc(Nc4ccc(Cl)cc4)n3)cc2)cc(OC)c1OC` was tested, and the GI50 (786-0 renal) was 6.13 µM, the TGI (786-0 renal) was 17.8 µM and the GI50 (A498 renal) was 3.23 µM. It also gave a TGI (A498 renal) of 13.6 µM, a GI50 (A549 NSCLC) of 12.1 µM and a TGI (A549 NSCLC) of 99 µM. For the same compound, the GI50 (ACHN renal) was 5.88 µM, the TGI (ACHN renal) was 61.1 µM and the GI50 (BT-549 breast) was 8.16 µM. It also gave a TGI (BT-549 breast) of 59.3 µM, a GI50 (CAKI-1 renal) of over 100 µM and a TGI (CAKI-1 renal) of over 100 µM. The GI50 (CCRF-CEM leukemia) was 1.09 µM, the TGI (CCRF-CEM leukemia) was 6.69 µM and the GI50 (COLO 205 colon) was 7.1 µM. It also gave a TGI (COLO 205 colon) of 41.2 µM, a GI50 (DU-145 prostate) of 10.6 µM and a TGI (DU-145 prostate) of over 65.9 µM. For the same compound, the GI50 (EKVX NSCLC) was over 24 µM, the TGI (EKVX NSCLC) was over 100 µM and the GI50 (HCC-2998 colon) was 0.804 µM. It also gave a TGI (HCC-2998 colon) of 2.3 µM, a GI50 (HCT-116 colon) of 3.13 µM and a TGI (HCT-116 colon) of 14.2 µM. The GI50 (HCT-15 colon) was 2.02 µM, the TGI (HCT-15 colon) was over 29.4 µM and the GI50 (HL-60(TB) leukemia) was 0.523 µM. It also gave a TGI (HL-60(TB) leukemia) of 3.23 µM, a GI50 (HOP-62 NSCLC) of 24.6 µM and a TGI (HOP-62 NSCLC) of over 73.8 µM. It also gave a TGI (HOP-92 NSCLC) of 4.75 µM, a GI50 (HS 578T breast) of 2.75 µM and a TGI (HS 578T breast) of 11.9 µM. The GI50 (HT29 colon) was 2.81 µM, the TGI (HT29 colon) was 17.5 µM and the GI50 (IGROV1 ovarian) was 4.66 µM. The TGI (IGROV1 ovarian) was 31.8 µM, the GI50 (K-562 leukemia) was 1.74 µM and the TGI (K-562 leukemia) was 8.19 µM. For the same compound, the GI50 (KM12 colon) was 3.35 µM, the TGI (KM12 colon) was 19.9 µM and the GI50 (LOX IMVI melanoma) was 1.82 µM. It also gave a TGI (LOX IMVI melanoma) of 4.84 µM, a GI50 (M14 melanoma) of 10.1 µM and a TGI (M14 melanoma) of 43.5 µM. It also gave a GI50 (MALME-3M melanoma) of 5.41 µM, a TGI (MALME-3M melanoma) of 13.7 µM and a GI50 (MCF7 breast) of 1.87 µM. For the same compound, the TGI (MCF7 breast) was 20.3 µM, the GI50 (MDA-MB-231 breast) was 5.77 µM and the TGI (MDA-MB-231 breast) was over 37.9 µM. For the same compound, the GI50 (MDA-MB-435) was 7.6 µM, the TGI (MDA-MB-435) was over 26.4 µM and the GI50 (MOLT-4 leukemia) was 1.15 µM. It also gave a TGI (MOLT-4 leukemia) of 3.6 µM, a GI50 (NCI-H226 lung) of 3.63 µM and a TGI (NCI-H226 lung) of 34.4 µM. The GI50 (NCI-H23 lung) was 3.99 µM, the TGI (NCI-H23 lung) was 20.7 µM and the GI50 (NCI-H460 lung) was 4.3 µM. It also gave a TGI (NCI-H460 lung) of 28 µM, a GI50 (NCI-H522 lung) of 3.8 µM and a TGI (NCI-H522 lung) of over 53.9 µM. It also gave a GI50 (NCI/ADR-RES ovarian) of 7.19 µM, a TGI (NCI/ADR-RES ovarian) of over 85.3 µM and a GI50 (OVCAR-3 ovarian) of 4.14 µM. It also gave a TGI (OVCAR-3 ovarian) of 15.9 µM, a GI50 (OVCAR-4 ovarian) of 6.75 µM and a TGI (OVCAR-4 ovarian) of over 100 µM. The GI50 (OVCAR-5 ovarian) was 12.6 µM, the TGI (OVCAR-5 ovarian) was 45.5 µM and the GI50 (OVCAR-8 ovarian) was 0.94 µM. It also gave a TGI (OVCAR-8 ovarian) of 11.1 µM, a GI50 (PC-3 prostate) of 1.04 µM and a GI50 (RPMI-8226 leukemia) of 0.811 µM. For the same compound, the TGI (RPMI-8226 leukemia) was 4.8 µM, the GI50 (RXF 393 renal) was 1.12 µM and the TGI (RXF 393 renal) was 2.9 µM. It also gave a GI50 (SF-268 CNS) of 9.23 µM, a TGI (SF-268 CNS) of 58.1 µM and a GI50 (SF-295 CNS) of 12.6 µM. The TGI (SF-295 CNS) was over 44.9 µM, the GI50 (SF-539 CNS) was 6.54 µM and the TGI (SF-539 CNS) was 15.3 µM. It also gave a GI50 (SK-MEL-2 melanoma) of 5.51 µM, a TGI (SK-MEL-2 melanoma) of 27 µM and a GI50 (SK-MEL-28 melanoma) of 1.82 µM. It also gave a TGI (SK-MEL-28 melanoma) of 3.71 µM, a GI50 (SK-MEL-5 melanoma) of 4.16 µM and a TGI (SK-MEL-5 melanoma) of 19 µM. For the same compound, the GI50 (SK-OV-3 ovarian) was 46.8 µM, the TGI (SK-OV-3 ovarian) was over 100 µM and the GI50 (SN12C renal) was 5.69 µM. It also gave a TGI (SN12C renal) of 54.4 µM, a GI50 (SNB-19 CNS) of 18.9 µM and a TGI (SNB-19 CNS) of over 100 µM. It also gave a GI50 (SNB-75 CNS) of 3.67 µM, a TGI (SNB-75 CNS) of 38.7 µM and a GI50 (SR leukemia) of 1.03 µM. For the same compound, the TGI (SR leukemia) was 3.74 µM, the GI50 (SW-620 colon) was 3.78 µM and the TGI (SW-620 colon) was 17.2 µM. It also gave a GI50 (T-47D breast) of 5.6 µM, a TGI (T-47D breast) of over 62.2 µM and a GI50 (TK-10 renal) of 19.8 µM. It also gave a TGI (TK-10 renal) of 76.4 µM, a GI50 (U251 CNS) of 3.19 µM and a TGI (U251 CNS) of over 34.7 µM. For the same compound, the GI50 (UACC-257 melanoma) was 6.76 µM, the TGI (UACC-257 melanoma) was 22.9 µM and the GI50 (UACC-62 melanoma) was 6.66 µM. For the same compound, the TGI (UACC-62 melanoma) was 23.7 µM, the GI50 (UO-31 renal) was 6.7 µM and the TGI (UO-31 renal) was over 61.8 µM.
`O=C(ON=c1c2ccccc2ccc2ccccc12)c1ccccc1` was tested, and the TGI (786-0 renal) was over 62.4 µM, the TGI (A498 renal) was 50.3 µM and the TGI (A549 NSCLC) was over 92.7 µM. It also gave a TGI (ACHN renal) of over 100 µM, a TGI (BT-549 breast) of 64.2 µM and a TGI (CAKI-1 renal) of 79 µM. It also gave a TGI (CCRF-CEM leukemia) of over 76 µM, a TGI (COLO 205 colon) of 35.7 µM and a TGI (DU-145 prostate) of over 100 µM. The TGI (EKVX NSCLC) was 96.9 µM, the TGI (HCC-2998 colon) was over 87.7 µM and the TGI (HCT-116 colon) was 34.1 µM. For the same compound, the TGI (HCT-15 colon) was over 95.9 µM, the TGI (HL-60(TB) leukemia) was 29.5 µM and the TGI (HOP-62 NSCLC) was 59 µM. It also gave a TGI (HOP-92 NSCLC) of 67.5 µM, a TGI (HS 578T breast) of 59.9 µM and a TGI (HT29 colon) of over 74.2 µM. For the same compound, the TGI (IGROV1 ovarian) was over 67.3 µM, the TGI (K-562 leukemia) was over 58.1 µM and the TGI (KM12 colon) was 35.6 µM. The TGI (LOX IMVI melanoma) was over 62.1 µM, the TGI (M14 melanoma) was 33.5 µM and the TGI (MALME-3M melanoma) was 50.5 µM. For the same compound, the TGI (MCF7 breast) was 45.5 µM, the TGI (MDA-MB-231 breast) was over 65.2 µM and the TGI (MDA-MB-435) was 42.7 µM. It also gave a TGI (MOLT-4 leukemia) of 16.2 µM, a TGI (NCI-H226 lung) of 57.9 µM and a TGI (NCI-H23 lung) of over 100 µM. The TGI (NCI-H460 lung) was over 80.4 µM, the TGI (NCI-H522 lung) was 47.3 µM and the TGI (NCI/ADR-RES ovarian) was 56.3 µM. For the same compound, the TGI (OVCAR-3 ovarian) was 62.1 µM, the TGI (OVCAR-4 ovarian) was over 89.1 µM and the TGI (OVCAR-5 ovarian) was over 100 µM. For the same compound, the TGI (OVCAR-8 ovarian) was over 67.7 µM, the TGI (PC-3 prostate) was over 93 µM and the TGI (RPMI-8226 leukemia) was 73.5 µM. For the same compound, the TGI (RXF 393 renal) was 23.6 µM, the TGI (SF-268 CNS) was over 86 µM and the TGI (SF-295 CNS) was over 73.4 µM. It also gave a TGI (SF-539 CNS) of 32.8 µM, a TGI (SK-MEL-2 melanoma) of over 58 µM and a TGI (SK-MEL-28 melanoma) of 56.3 µM. The TGI (SK-MEL-5 melanoma) was 29.8 µM, the TGI (SK-OV-3 ovarian) was over 91.1 µM and the TGI (SN12C renal) was over 68.9 µM. The TGI (SNB-19 CNS) was over 84.1 µM, the TGI (SNB-75 CNS) was 99.7 µM and the TGI (SR leukemia) was 32.4 µM. It also gave a TGI (SW-620 colon) of 43.3 µM, a TGI (T-47D breast) of 91.4 µM and a TGI (TK-10 renal) of over 100 µM. The TGI (U251 CNS) was 39 µM, the TGI (UACC-257 melanoma) was 93.4 µM and the TGI (UACC-62 melanoma) was 30.5 µM. It also gave a TGI (UO-31 renal) of 57.4 µM.
